# Experimental data as given in patent publication US20030105124A1, “Substituted benzolactam compounds” (priority 2000, published 2003).
# Test system: not given
# Assay: not given
# Conditions: not given
row,melting point [°C],SMILES
1,136 to 139,COc1cc2c(cc1CN[C@H]1C3CCN(CC3)[C@H]1C(c1ccccc1)c1ccccc1)N(C)C(=O)CC2
2,125 to 128,COc1cc2ccc(=O)n(C)c2cc1CN[C@H]1C2CCN(CC2)[C@H]1C(c1ccccc1)c1ccccc1
3,260 to 263,COc1cc2ccc(=O)n(C)c2cc1CN[C@H]1CCCN[C@H]1c1ccccc1.Cl.Cl
4,257 to 260,COc1cc2c(cc1CN[C@H]1CCCN[C@H]1c1ccccc1)N(C(C)C)C(=O)CC2.Cl.Cl
5,238 to 240,CN1C(=O)CCc2cc(OC(F)F)c(CN[C@H]3CCCN[C@H]3c3ccccc3)cc21.Cl.Cl
6,243 to 245,COc1cc2c(cc1CN[C@H]1CCCN[C@H]1c1ccccc1)N(CC(F)(F)F)C(=O)CC2.Cl.Cl
7,245 to 246,COc1cc2c(cc1CN[C@H]1CCCN[C@H]1c1ccccc1)N(C)C(=S)CC2.Cl.Cl
8,236 to 238,COc1cc2c(cc1CN[C@H]1CCCN[C@H]1c1ccccc1)N(C)C(=O)CCC2.Cl.Cl
9,243 to 244,COc1cc2c(cc1CN[C@H]1CCCN[C@H]1c1ccccc1)CCC(=O)N2C.Cl.Cl
10,255 to 256,COc1cc2c(cc1CN[C@H]1CCCN[C@H]1c1ccccc1)C(C(F)(F)F)CC(=O)N2C.Cl.Cl (stereo partly drawn)
11,235 to 237,COc1cc2c(cc1CN[C@H]1CCCN[C@H]1c1ccccc1)N(C)C(=O)OC2.Cl.Cl
12,252 to 254,COc1cc2c(cc1CN[C@H]1CCCN[C@H]1c1ccccc1)N(C)C(=O)SC2.Cl.Cl
13,234 to 236,COc1cc2c(cc1CN[C@H]1CCCN[C@H]1c1ccccc1)C(C)(C)C(=S)N2C.Cl.Cl
14,219 to 221,COc1cc2c(cc1CN[C@H]1CCCN[C@H]1c1ccccc1)CCC(=S)N2C.Cl.Cl
15,265 to 268,"COc1cc2c(cc1CN[C@H]1CCCN[C@H]1c1ccccc1)N(C)C(=O)CC2.Cl.Cl [Compound 21, (2S,3S)-3-(6-Methoxy-1-methyl-2-oxo-1,2,3,4-tetrahydroquinolin-7-yl)methylamino-2-phenylpiperidine Dihydrochloride]"

# Test system: gerbils
# Assay: tapping test in gerbils
# Format: in vivo, gerbil
# Conditions: % inhibition at 0.3 mg/kg scoring
# Protocol: More specifically, gerbils are lightly anesthetized with ether and the skull surface is exposed. […] Following injection, gerbils are placed in 1 L beaker individually and monitored for repetitive hind paw tapping. Some compounds prepared in the following Examples were tested in accordance with these testing methods.
row,SMILES,"[Sar^9, Met(O2)^11]substance P-induced tapping test, % inhibition [%]"
1,"COc1cc2c(cc1CN[C@H]1CCCN[C@H]1c1ccccc1)N(C)C(=O)CC2.Cl.Cl [Compound 21, (2S,3S)-3-(6-Methoxy-1-methyl-2-oxo-1,2,3,4-tetrahydroquinolin-7-yl)methylamino-2-phenylpiperidine Dihydrochloride]",52

# Biological target: T1, Ca^2+ channel (Rattus norvegicus, UniProt P22002)
# T1 construct: from tissue; host or cells: rat heart membrane preparation
# T1 sequence (P22002 whole entry, other chains not shown): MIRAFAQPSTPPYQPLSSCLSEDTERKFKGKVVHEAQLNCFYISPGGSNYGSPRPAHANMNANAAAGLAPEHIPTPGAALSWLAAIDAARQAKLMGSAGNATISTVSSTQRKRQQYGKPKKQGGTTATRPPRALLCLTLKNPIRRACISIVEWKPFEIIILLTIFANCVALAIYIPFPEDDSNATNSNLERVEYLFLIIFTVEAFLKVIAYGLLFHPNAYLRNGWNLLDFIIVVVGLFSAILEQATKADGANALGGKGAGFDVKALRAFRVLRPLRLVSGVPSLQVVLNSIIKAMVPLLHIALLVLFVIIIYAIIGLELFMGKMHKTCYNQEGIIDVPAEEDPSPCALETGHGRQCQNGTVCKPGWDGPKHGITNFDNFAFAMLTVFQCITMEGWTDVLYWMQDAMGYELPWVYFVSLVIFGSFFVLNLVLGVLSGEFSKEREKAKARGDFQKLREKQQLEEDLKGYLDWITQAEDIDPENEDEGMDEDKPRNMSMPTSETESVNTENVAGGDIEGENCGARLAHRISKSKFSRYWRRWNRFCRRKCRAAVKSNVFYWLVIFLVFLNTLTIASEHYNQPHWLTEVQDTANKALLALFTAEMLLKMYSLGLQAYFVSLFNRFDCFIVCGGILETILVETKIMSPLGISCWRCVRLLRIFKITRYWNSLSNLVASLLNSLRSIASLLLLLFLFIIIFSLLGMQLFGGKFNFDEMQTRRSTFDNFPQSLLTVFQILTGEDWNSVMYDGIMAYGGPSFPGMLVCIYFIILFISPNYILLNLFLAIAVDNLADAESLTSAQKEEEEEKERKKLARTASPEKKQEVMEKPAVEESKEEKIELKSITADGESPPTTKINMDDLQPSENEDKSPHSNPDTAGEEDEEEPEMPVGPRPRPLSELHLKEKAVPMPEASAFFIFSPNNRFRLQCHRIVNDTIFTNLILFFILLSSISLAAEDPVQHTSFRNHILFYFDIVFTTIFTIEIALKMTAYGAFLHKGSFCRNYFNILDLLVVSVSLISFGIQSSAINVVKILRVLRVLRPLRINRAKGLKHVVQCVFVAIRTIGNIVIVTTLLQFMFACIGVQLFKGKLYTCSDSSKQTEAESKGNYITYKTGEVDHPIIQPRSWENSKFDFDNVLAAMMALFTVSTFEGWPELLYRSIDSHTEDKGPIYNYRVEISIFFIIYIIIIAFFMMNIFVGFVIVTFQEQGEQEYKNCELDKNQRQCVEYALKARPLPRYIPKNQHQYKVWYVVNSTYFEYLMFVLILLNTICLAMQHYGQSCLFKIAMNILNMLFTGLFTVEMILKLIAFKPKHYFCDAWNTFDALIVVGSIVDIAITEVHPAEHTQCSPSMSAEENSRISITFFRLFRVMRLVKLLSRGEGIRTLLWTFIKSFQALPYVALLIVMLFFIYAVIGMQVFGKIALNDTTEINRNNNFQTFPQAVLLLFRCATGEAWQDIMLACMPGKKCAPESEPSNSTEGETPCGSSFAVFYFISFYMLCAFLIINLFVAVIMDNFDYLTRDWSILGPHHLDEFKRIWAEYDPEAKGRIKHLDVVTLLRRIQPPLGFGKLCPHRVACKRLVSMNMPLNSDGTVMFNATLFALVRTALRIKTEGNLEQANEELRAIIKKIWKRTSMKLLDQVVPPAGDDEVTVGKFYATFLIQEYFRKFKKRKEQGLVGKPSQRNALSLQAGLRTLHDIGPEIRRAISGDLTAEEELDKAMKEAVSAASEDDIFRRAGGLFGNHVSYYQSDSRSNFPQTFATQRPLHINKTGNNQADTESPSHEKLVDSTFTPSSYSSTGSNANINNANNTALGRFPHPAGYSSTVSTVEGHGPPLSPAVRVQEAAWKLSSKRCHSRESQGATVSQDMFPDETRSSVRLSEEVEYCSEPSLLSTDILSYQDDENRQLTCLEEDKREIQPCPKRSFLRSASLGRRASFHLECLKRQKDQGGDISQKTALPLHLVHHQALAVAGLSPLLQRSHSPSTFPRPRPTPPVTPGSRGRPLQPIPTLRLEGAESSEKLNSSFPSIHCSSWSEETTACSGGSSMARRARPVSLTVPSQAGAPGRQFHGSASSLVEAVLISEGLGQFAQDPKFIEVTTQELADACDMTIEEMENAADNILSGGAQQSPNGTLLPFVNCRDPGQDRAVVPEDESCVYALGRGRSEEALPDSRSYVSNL
# T1 sequence (P54290 25-944 partner limits assumed, other chains not shown): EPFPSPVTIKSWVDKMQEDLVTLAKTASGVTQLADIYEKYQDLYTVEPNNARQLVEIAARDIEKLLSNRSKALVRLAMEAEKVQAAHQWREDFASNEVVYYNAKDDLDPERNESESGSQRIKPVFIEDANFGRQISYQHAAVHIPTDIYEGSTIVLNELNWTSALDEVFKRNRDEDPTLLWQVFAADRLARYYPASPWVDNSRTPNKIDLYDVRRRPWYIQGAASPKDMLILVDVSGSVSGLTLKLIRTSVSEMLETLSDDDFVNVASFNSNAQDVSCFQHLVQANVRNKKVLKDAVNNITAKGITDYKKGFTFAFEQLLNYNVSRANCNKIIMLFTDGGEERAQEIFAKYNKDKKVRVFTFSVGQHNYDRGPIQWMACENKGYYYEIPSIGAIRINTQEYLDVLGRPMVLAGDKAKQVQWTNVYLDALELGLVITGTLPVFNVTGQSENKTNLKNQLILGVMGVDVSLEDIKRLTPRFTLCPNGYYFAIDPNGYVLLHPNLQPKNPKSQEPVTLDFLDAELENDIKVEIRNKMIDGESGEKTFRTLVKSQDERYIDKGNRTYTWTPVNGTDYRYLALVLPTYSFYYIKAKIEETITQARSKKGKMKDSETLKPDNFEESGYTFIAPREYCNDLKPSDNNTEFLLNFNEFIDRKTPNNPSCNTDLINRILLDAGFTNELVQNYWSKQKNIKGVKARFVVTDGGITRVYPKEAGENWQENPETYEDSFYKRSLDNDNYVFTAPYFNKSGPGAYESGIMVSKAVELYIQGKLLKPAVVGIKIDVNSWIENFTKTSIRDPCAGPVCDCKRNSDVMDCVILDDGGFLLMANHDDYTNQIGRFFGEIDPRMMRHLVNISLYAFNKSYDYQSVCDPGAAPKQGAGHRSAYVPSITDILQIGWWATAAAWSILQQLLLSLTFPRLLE
# T1 sequence (P54290 945-1091 partner limits assumed, other chains not shown): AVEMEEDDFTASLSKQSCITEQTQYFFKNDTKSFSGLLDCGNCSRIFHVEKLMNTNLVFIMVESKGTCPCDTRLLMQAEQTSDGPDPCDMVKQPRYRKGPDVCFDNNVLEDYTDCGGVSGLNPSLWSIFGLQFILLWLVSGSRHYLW
# Assay: verapamil binding study in rat heart membrane preparation
# Conditions: 0.25 nM [^3H]desmethoxyverapamil, read-out: verapamil binding study (Ca^2+ channel binding affinity, adverse effect)
# Protocol: The adverse effect on Ca^2+ channel binding affinity is determined by verapamil binding study in rat heart membrane preparation. More specifically, verapamil binding study is performed as previously described by Reynolds et al., (J. Pharmacol. Exp. Ther., 237, 731, (1986)). Briefly, incubations are initiated by the addition of tissue to tubes containing 0.25 nM [^3H]desmethoxyverapamil and various concentrations of compounds (total volume; 1 ml). Nonspecific binding is defined as radioligand binding remaining in the presence of 3-10 μM methoxyverapamil.
row,SMILES,IC50 [µM]
1,"COc1cc2c(cc1CN[C@H]1CCCN[C@H]1c1ccccc1)N(C)C(=O)CC2.Cl.Cl [Compound 21, (2S,3S)-3-(6-Methoxy-1-methyl-2-oxo-1,2,3,4-tetrahydroquinolin-7-yl)methylamino-2-phenylpiperidine Dihydrochloride]",> 0.3

# Biological target: T2, substance P receptor sites in IM-9 cells (Homo sapiens, UniProt P25103)
# T2 construct: endogenous in cells; host or cells: IM-9 cells (human)
# T2 sequence (P25103 whole entry): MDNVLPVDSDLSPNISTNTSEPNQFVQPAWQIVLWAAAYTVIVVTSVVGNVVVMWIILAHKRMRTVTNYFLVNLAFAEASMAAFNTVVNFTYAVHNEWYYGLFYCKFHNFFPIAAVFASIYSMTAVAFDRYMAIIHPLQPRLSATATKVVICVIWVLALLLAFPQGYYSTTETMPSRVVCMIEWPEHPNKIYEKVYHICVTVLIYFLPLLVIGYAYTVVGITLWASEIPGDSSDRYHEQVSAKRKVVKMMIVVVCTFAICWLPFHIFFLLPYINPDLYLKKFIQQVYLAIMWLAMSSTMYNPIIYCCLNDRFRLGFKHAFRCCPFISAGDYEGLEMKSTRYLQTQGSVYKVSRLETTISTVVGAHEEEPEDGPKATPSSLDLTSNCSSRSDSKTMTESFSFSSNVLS
# Assay: IM-9 binding assay (inhibition of [3H]SP binding)
# Conditions: human IM-9 cells, 0.56 nM [^3H]SP, 120 min at 4° C.
# Protocol: The activity of the compounds of the present invention, as substance P antagonists, is determined by their ability to inhibit the binding of substance P at its receptor sites in IM-9 cells employing radioactive ligands. The substance P antagonist activity of the herein described compounds is evaluated by using the standard assay procedure described by D. G. Payan et al., as reported in J. Immunolocy, 133, 3260 (1984). This method essentially involves determining the concentration of the individual compound required to reduce by 50% the amount of radiolabeled substance P ligands at their receptor sites in said isolated cow tissues or IM-9 cells, thereby affording characteristic IC50 values for each compound tested. More specifically, inhibition of [^3H]SP binding to human IM-9 cells by compounds are determined in assay buffer (50 mM Tris-HCl (pH 7.4), 1 mM MnCl2, 0.02% bovine serum albumin, bacitracin (40 μg/ml), leupeptin (4 μg/ml), chymostatin (2 μg/ml) and phosphoramidon (30 μg/ml)). The reaction is initiated by the addition of cells to assay buffer containing 0.56 nM [^3H]SP and various concentrations of compounds (total volume; 0.5 ml) and allowed to incubate for 120 min at 4° C. […] Nonspecific binding is defined as the radioactivity remaining in the presence of 1 μM SP. The filters are placed into tubes and counted using liquid scintillation counter.
row,IC50 [µM],SMILES
1,< 0.0001,"COc1cc2c(cc1CN[C@H]1CCCN[C@H]1c1ccccc1)N(C)C(=O)CC2.Cl.Cl [Compound 21, (2S,3S)-3-(6-Methoxy-1-methyl-2-oxo-1,2,3,4-tetrahydroquinolin-7-yl)methylamino-2-phenylpiperidine Dihydrochloride]"
